For nine compounds, IC50 results are on record in patent US10662184B2, “Benzenesulfonamide compounds and their use as therapeutic agents” (Xenon Pharmaceuticals Inc., priority 2016, dated 2020).

Test [1] deals with human NaV1.1 (Homo sapiens (Human), UniProt P35498). In words: Sodium Influx Assay (Flux), NaV1.1. The class given is cell-based. The note with it: Trex HEK293 cells, ANG2 dye; arithmetic mean.
In test [2] the target is human NaV1.6 (Homo sapiens (Human), UniProt Q9UQD0). Briefly: Sodium Influx Assay (Flux), NaV1.6.
Test [3] addresses human NaV1.5 (Homo sapiens (Human), UniProt Q14524). In words: cell-based.
The target in test [4] is human NaV1.6 (SCN8A) (Homo sapiens (Human), UniProt Q9UQD0). Briefly: Electrophysiological Assay (EP, patch voltage clamp), NaV1.6. It counts as cell-based. The note with it: HEK-293 cells, whole-cell patch clamp, inactivated state; arithmetic mean. The text has this: Patch voltage clamp electrophysiology allows for the direct measurement and quantification of block of voltage-gated sodium channels (Nav's), and allows the determination of the time- and voltage-dependence of block which has been interpreted as differential binding to the resting, open, and inactivated states of the sodium channel (Hille, B., Journal of General Physiology (1977), 69: 497-515).
Nav1.1, Nav1.5 and Nav1.6 cDNAs (NM_001165964 (SCN1A), NM_000335 (SCN5A) and NM_014191 (SCN8A), respectively) were stably expressed in HEK-293 cells.
Sodium currents were measured using the patch clamp technique in the whole-cell configuration using either a PatchXpress automated voltage clamp or manually using an Axopatch 200B (Axon Instruments) or Model 2400 (A-M systems) amplifier. […] Control sodium currents were measured in 0.5% DMSO. […]
Currents were recorded at 40 kHz sampling frequency, filtered at […], and stored using a Digidata-1322A analogue/digital interface with the pClamp software (Axon Instruments). […]
The membrane potential was maintained at a voltage where inactivation of the channel is complete. The voltage is then stepped back to a very negative (Vhold=−150 mV) voltage for 20 ms and then a test pulse is applied to quantify the compound block. […]

For test [5], the target named is human NaV1.1 (SCN1A) (Homo sapiens (Human), UniProt P35498). In words: Electrophysiological Assay (EP, patch voltage clamp), NaV1.1. The class given is cell-based. The note with it: HEK-293 cells, whole-cell patch clamp, inactivated state; arithmetic mean. The procedure:
Sodium currents were measured using the patch clamp technique in the whole-cell configuration using either a PatchXpress automated voltage clamp or manually using an Axopatch 200B (Axon Instruments) or Model 2400 (A-M systems) amplifier. […] In some studies, the external sodium was reduced by equimolar replacement with choline. […] All recordings were performed at ambient temperature in a bath chamber with a volume of 150 μL. Control sodium currents were measured in 0.5% DMSO. Controls and representative compounds of the invention were applied to the recording chamber through a 4-pinch or 8-pinch valve bath perfusion system manufactured by ALA Scientific Instruments.
Series resistance compensation was applied (60-80%). […] All statistics in this study are given as mean±SD.
The membrane potential was maintained at a voltage where inactivation of the channel is complete. The voltage is then stepped back to a very negative (Vhold=−150 mV) voltage for 20 ms and then a test pulse is applied to quantify the compound block. […] The percent decrease in sodium current following wash-on of compound was taken as the percent block of sodium channels.
(In general: The patch-clamp technique gives a direct electrical read-out from membranes.)

The mark [6] stands for this setting: read-out: Flux NaV1.6 IC50, Trex HEK293 cells, ANG2 dye, arithmetic mean.

pIC50: −log10 of the molar value. Where two headings read alike, the source gives them in different places.

Chain of human NaV1.5 (Q14524 other isoform, or with tags, fused parts or gaps): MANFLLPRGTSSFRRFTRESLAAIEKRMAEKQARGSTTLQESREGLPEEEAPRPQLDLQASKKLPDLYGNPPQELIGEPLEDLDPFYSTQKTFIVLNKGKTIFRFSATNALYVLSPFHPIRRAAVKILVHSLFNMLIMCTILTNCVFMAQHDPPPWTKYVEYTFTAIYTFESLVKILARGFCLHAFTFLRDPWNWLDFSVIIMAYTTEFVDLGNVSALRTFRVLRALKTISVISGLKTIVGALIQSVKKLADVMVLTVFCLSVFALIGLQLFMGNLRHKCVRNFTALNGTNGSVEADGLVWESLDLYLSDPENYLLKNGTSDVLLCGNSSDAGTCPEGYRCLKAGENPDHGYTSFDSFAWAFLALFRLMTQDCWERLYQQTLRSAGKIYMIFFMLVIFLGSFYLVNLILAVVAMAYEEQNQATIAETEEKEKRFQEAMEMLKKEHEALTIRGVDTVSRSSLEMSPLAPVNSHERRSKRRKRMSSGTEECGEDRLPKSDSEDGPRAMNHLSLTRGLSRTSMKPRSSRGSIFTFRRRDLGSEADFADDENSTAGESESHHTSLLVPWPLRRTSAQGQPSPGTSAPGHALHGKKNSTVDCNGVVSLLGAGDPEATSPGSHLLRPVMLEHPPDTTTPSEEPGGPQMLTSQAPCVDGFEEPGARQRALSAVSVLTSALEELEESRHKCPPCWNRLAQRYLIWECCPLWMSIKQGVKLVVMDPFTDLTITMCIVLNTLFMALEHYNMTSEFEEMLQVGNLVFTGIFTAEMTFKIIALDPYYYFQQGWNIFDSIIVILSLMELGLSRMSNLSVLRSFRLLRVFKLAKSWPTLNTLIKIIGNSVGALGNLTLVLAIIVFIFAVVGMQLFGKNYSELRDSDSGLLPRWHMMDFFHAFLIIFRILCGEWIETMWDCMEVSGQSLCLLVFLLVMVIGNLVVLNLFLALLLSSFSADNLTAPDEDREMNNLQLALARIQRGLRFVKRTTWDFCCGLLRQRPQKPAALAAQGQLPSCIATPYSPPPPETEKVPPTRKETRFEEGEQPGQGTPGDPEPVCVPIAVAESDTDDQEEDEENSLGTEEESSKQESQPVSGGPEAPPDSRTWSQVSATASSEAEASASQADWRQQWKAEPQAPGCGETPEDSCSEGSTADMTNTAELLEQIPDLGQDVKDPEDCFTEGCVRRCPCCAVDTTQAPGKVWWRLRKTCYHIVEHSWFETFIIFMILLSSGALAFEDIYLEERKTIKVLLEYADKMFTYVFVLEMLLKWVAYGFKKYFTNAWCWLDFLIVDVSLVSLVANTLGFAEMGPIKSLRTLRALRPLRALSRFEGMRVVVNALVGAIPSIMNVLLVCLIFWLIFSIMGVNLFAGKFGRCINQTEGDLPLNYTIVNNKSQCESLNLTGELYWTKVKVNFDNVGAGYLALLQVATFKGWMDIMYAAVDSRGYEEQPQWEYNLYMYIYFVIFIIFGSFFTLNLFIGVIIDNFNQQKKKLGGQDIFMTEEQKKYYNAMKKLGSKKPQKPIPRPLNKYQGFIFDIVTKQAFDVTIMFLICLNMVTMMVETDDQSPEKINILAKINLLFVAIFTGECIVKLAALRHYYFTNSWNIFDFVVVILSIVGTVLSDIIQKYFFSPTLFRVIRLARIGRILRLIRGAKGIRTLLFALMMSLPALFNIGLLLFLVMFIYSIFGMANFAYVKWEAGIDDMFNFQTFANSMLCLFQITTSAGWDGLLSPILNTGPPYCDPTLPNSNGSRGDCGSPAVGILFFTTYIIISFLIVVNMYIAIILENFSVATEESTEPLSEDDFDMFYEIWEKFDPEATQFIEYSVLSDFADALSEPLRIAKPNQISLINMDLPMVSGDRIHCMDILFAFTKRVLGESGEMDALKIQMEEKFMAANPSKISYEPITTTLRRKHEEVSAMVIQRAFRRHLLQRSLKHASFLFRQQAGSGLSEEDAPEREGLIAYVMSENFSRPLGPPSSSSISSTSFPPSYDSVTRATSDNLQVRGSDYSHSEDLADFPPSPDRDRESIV
Chain of human NaV1.6 (SCN8A) (Q9UQD0 whole entry): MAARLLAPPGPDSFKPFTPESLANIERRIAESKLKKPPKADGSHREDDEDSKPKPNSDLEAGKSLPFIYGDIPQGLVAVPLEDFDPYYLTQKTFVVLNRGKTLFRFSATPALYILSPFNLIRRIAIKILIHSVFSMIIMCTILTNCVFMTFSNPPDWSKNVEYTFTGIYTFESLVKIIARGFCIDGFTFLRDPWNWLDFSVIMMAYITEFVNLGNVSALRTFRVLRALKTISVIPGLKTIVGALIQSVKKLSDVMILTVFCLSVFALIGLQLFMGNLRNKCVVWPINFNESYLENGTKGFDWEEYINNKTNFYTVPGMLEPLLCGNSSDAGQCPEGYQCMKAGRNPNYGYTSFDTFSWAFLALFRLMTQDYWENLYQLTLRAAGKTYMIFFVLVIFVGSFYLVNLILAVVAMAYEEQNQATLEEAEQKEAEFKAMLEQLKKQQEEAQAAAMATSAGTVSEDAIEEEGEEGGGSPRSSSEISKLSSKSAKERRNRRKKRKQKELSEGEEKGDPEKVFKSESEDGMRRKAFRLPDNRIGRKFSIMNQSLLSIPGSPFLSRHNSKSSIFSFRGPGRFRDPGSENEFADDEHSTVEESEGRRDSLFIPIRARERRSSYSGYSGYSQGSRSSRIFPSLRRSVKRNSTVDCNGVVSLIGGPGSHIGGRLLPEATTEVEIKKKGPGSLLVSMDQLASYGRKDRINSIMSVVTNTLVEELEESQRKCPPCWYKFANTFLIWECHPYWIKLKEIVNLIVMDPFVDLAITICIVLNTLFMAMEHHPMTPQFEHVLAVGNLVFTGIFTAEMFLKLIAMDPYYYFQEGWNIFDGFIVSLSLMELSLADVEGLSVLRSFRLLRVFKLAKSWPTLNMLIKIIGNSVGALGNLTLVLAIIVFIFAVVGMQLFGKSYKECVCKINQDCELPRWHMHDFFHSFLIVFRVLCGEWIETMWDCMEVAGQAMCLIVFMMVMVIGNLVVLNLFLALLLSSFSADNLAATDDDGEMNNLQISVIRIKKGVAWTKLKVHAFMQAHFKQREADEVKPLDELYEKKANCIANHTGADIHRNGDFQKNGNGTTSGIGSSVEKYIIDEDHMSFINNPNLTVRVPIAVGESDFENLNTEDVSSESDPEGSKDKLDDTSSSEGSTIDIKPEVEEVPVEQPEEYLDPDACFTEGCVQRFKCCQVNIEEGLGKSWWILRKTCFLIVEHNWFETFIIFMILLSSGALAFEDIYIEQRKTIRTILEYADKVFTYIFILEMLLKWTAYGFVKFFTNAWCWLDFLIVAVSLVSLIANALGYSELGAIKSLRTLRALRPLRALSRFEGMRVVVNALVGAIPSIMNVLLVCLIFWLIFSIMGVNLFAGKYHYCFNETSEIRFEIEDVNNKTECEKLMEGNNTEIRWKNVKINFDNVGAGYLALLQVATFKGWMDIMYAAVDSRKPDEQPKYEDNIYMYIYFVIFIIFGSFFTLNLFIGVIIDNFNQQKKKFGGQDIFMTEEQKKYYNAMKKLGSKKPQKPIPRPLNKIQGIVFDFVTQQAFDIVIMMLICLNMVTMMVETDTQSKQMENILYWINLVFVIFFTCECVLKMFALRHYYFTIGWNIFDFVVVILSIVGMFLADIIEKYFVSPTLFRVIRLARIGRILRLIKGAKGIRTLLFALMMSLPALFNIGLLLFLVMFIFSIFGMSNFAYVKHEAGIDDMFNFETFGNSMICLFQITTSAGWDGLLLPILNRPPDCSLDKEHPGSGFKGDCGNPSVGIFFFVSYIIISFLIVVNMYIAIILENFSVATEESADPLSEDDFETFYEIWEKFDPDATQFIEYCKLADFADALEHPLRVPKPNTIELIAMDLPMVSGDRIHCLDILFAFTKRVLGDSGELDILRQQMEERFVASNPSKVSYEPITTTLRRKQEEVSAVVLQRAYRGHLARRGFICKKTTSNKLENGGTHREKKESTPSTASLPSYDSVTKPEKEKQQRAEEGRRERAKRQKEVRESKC

A word on the pIC50: it is −log10 of the IC50, conventionally taken in molar units. For the compound `C[C@@H]1[C@H](N(C)c2cc(F)c(S(=O)(=O)Nc3cscn3)cc2Cl)CCN1Cc1ccccc1` (racemic) [Example 309, rac-4-(((2R,3R)-1-benzyl-2-methylpyrrolidin-3-yl)(methyl)amino)-5-chloro-2-fluoro-N-(thiazol-4-yl)benzenesulfonamide], the figures for the pIC50 in test [1] and in test [2] (setting [6]) were 5.07 and 5.16, respectively.
Regarding `Cc1cccc(CN2CC[C@H](Oc3ccc(S(=O)(=O)Nc4nccs4)cc3Cl)[C@H](C)C2)c1` (relative stereo) [Example 9A, 3-chloro-4-((cis-3-methyl-1-(3-methylbenzyl)piperidin-4-yl)oxy)-N-(thiazol-2-yl)benzenesulfonamide], in test [2], the pIC50 was 5.76.
Regarding `C[C@H]1C[C@@H](Oc2ccc(S(=O)(=O)Nc3nccs3)cc2Cl)CCN1Cc1ccccc1` (relative stereo) [Example 72, 4-((cis-1-benzyl-2-methylpiperidin-4-yl)oxy)-3-chloro-N-(thiazol-2-yl)benzenesulfonamide], the figures for the pIC50 in test [1], in test [3] and in test [2] were 5.17, 4.87 and 5.22, respectively.
In the same order, the values of `C[C@@H](c1ccccc1)N1CC[C@H](N(C)c2cc(F)c(S(=O)(=O)Nc3cccc(F)n3)cc2Cl)C1` [Example 43, 2,2,2-trifluoroacetate] are 5.10, 4.77 and 5.72.
Take `C[C@H]1CN(Cc2ccccc2)C[C@@H]1Nc1ccc(S(=O)(=O)Nc2nccs2)cc1Cl` (relative stereo) [Example 74, 4-((trans-1-benzyl-4-methylpyrrolidin-3-yl)amino)-3-chloro-N-(thiazol-2-yl)benzenesulfonamide]: the pIC50 in test [1] is 5.81; in test [4], 7.60; in test [5], 5.99; in test [3] it was 5.06; in test [2], 6.78.
`O=S(=O)(Nc1cscn1)c1ccc(O[C@@H]2C[C@H]3CC[C@@H](C2)N3Cc2cccc(C(F)F)c2)c(Cl)c1` [Example 256, 3-chloro-4-(((1R,3s,5S)-8-(3-(difluoromethyl)benzyl)-8-azabicyclo[3.2.1]octan-3-yl)oxy)-N-(thiazol-4-yl)benzenesulfonamide]: the pIC50 in test [1] was 5.36; in test [2] (setting [6]), 5.48.
On to `C[C@@H]1C[C@@H](Oc2ccc(S(=O)(=O)Nc3nccs3)cc2Cl)CCN1Cc1ccccc1` (relative stereo) [Example 73, 4-((trans-1-benzyl-2-methylpiperidin-4-yl)oxy)-3-chloro-N-(thiazol-2-yl)benzenesulfonamide], for which the pIC50 in test [1] was 5.23; in test [3], 4.88; in test [2], 5.73.
Turning to `Cc1cccc(CN2CC[C@@H](Oc3ccc(S(=O)(=O)Nc4nccs4)cc3Cl)[C@H](C)C2)c1` (relative stereo) [Example 9B, 3-chloro-4-((trans-3-methyl-1-(3-methylbenzyl)piperidin-4-yl)oxy)-N-(thiazol-2-yl)benzenesulfonamide], the results for the pIC50 in test [3] and in test [2] were 5.06 and 6.06, respectively.
In the case of `C[C@@H]1CN(Cc2ccccc2)C[C@@H]1Nc1ccc(S(=O)(=O)Nc2nccs2)cc1Cl` (relative stereo) [Example 75, 4-((cis-1-benzyl-4-methylpyrrolidin-3-yl)amino)-3-chloro-N-(thiazol-2-yl)benzenesulfonamide], the pIC50 in test [1] was 5.38; in test [3], 5.05; in test [2], 6.18.
